The values that follow come from PMC9418603 (JID Innovations, 2022).

Entries after “also recorded” stand apart in the source; their conditions may differ. Where two headings read alike, the source gives them in different places. Where no end group is shown, it is not given here. The star is where a group is joined. Biotin = O=C1N[C@H]2[C@H](CS[C@H]2CCCCC(=O)*)N1

In data set [1] the test system is TGM2. The following applies: cited from earlier work.
For data set [2], the system named is TGM2. To be noted: cited from earlier work. The source holds these as a separate data set.
Data set [3] has as its system recombinant human siglecs. The following applies: cited from earlier work.
For data set [4], the system named is LPS-treated dorsal skin of mice. Set-up: species or system Female C57BL/6J mice. The following applies: mouse, in vivo.
Data set [5] has as its system sialic acid‒specific plant lectins. The following applies: cited from earlier work.
The format of data set [6] is physicochemical. To be noted: pH 5.
Data set [7] concerns human CLEC10A (CD301). The following applies: cited from earlier work.
Data set [8] deals with TGM2 (Cavia cutleri, UniProt P08587). The data set is classed as biochemical, guinea pig liver.
Chain of TGM2 (Cavia cutleri, UniProt P08587) (P08587 whole entry): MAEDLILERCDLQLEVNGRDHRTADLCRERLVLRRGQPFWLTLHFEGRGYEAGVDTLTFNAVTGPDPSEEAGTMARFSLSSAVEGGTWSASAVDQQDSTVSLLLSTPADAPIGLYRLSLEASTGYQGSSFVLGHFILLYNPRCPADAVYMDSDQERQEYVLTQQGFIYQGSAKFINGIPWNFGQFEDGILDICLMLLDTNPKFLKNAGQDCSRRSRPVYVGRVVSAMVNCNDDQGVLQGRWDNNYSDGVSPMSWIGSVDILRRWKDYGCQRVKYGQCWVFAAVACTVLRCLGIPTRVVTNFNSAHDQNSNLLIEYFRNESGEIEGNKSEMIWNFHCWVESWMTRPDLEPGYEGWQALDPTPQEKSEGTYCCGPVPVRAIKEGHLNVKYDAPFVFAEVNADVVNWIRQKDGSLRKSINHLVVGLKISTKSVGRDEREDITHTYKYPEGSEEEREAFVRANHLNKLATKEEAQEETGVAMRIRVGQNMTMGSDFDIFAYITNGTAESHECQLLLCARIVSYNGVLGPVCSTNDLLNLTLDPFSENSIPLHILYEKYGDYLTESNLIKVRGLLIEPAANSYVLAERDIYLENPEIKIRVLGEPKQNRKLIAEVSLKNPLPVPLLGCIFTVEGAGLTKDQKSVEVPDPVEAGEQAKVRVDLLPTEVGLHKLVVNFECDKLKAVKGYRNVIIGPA
For data set [9], the system named is N-acetylgalactosamine‒specific lectins. To be noted: cited from earlier work.

Regarding `[Ca+2]` [Ca^2+, calcium ion], the “activation constant, KA” value in data set [1] was 6.9 mM.

Consider `C[C@@H]1C[C@H]2[C@@H]3CCC4=CC(=O)C=C[C@]4(C)[C@@]3(F)[C@@H](O)C[C@]2(C)[C@@]1(O)C(=O)CO` [dexamethasone], for which the “induction of TGM2 expression” value in [2] is “Expression of TGM2 is induced”.

As for `NCCCCN` [putrescine], the “acceptor amine (second substrate) activity” value in [1] was “active second substrates”.

Regarding `NCCCCNCCCN` [spermidine], the “acceptor amine (second substrate) activity” value in data set [1] is on record as “active second substrates”.

Turning to Biotin-TVQQEL, the Michaelis constant (Km) in data set [1] (read-out: Km of standard peptide) is 1 µM.

[(NPSHPLSG-GGGS)2K]2K-NH2 [svH1C]: in data set [3], the “binding to recombinant human siglecs” value is “recombinant human siglecs”. In [4], the “effectiveness, topical (general statement)” value is listed as “not effective when applied topically”; the “epidermal disruption / integrity of skin surface” value is reported as “not when applied topically”; the “epidermal morphology / thickness” value is reported as “ineffective in restoring normal epidermal morphology”. Moreover, in data set [4] (sc), the “epidermal disruption / recovery, lesions” value is recorded as “effective when injected subcutaneously; also recorded: lesions were absent”; the epidermal thickness entry is “most areas of the skin contained a thickened epidermis”; the neutrophils in dermis entry was “abundant neutrophils in the dermis”. Moreover, the “binding to sialic acid‒specific plant lectins” value in [5] was “binds to sialic acid‒specific plant lectins”.

As to [(NQHTPR-GGGS)2K2]K-NH2 [sv6D], the positive charge in [6] is 12. Also, in data set [7], the “binding to human CLEC10A” value was “binds with high specificity and avidity to recombinant and native human CLEC10A (CD301); also recorded: bind specifically to human CLEC10A”. In [4], the mean epidermal thickness stood at 17.1 μm and the “repair of structural disruption of the epidermis (general statement)” value is “structural disruption of the epidermis was repaired”. Besides, in data set [8], the “Km relative to svL4” value was “higher Km values”, the “TGM2 functional substrate / cross-linking to lysine” value is listed as “the enzyme can use glutamine from the arms; also recorded: functional substrates of transglutaminase (TGM) 2”, the “TGM2 substrate activity” value is listed as “poor substrates in vitro” and the “TGM2 substrate activity with aged enzyme” value is reported as “gained the ability to use sv6D”. Also, in [9], the “binding to other N-acetylgalactosamine‒specific lectins” value was “bind specifically to human CLEC10A ([Hoober, 2020]) and other N-acetylgalactosamine‒specific lectins”.

As to [(VQATQS-GGGS)2K2]K-NH2 [svC1], the “binding to human CLEC10A” value in data set [7] was “does not bind to CLEC10A”. For the same compound, in data set [4], the mean epidermal thickness came to 15.5 μm and the “reduction of epidermal thickness” value is recorded as “active in reducing the thickness of the epidermis”. For the same compound, in data set [8], the “Km relative to svL4” value is on record as “higher Km values”; the “TGM2 functional substrate / cross-linking to lysine” value was “the enzyme can use glutamine from the arms”; the “TGM2 substrate activity” value is recorded as “poor substrates in vitro”; the “TGM2 substrate activity with aged enzyme” value was “to a lesser extent, svC1 as substrates”.

[(VQATQSNQHTPR-GGGS)2K2]K-NH2 [svL4] showed a positive charge in data set [6] of 12. Besides, the “binding to human CLEC10A” value in data set [7] was “binds with high specificity and avidity to recombinant and native human CLEC10A (CD301); also recorded: bind specifically to human CLEC10A”. Besides, in [4], the “epidermal disruption / integrity of skin surface” value is “restored the integrity of the skin surface, with no epidermal disruptions”; the “epidermal morphology / thickness” value is “uniformly of normal thickness; also recorded: normal morphology with thin epidermis; also recorded: the epidermis had returned to a normal morphology”; the mean epidermal thickness is on record as 16.1 μm; the “neutrophils (Ly6G^+) in dermis” value is reported as “nearly free of neutrophils; also recorded: essentially free of neutrophils; also recorded: neutrophils were absent”. Moreover, in data set [4], the “neutrophils in the dermis (summary statement)” value is recorded as “loss of neutrophils in the dermis”, the “repair of structural disruption of the epidermis (general statement)” value is “repair of areas of structural disruption of the epidermis; also recorded: structural disruption of the epidermis was repaired” and the “thickness of the epidermis (summary statement)” value is given as “reduction of the thickness of the epidermis”. For the same compound, in data set [4] (sc), the “density of dermal collagen” value was “an increased density of dermal collagen was noted”; the “epidermal disruption / recovery, lesions” value is on record as “no recovery occurred”; the epidermal thickness result is on record as “did not reduce epidermal thickness”. Also, in data set [8], the “TGM2 functional substrate / cross-linking to lysine” value is “the enzyme can use glutamine from the arms; also recorded: functional substrates of transglutaminase (TGM) 2” and the “TGM2 substrate activity with aged enzyme” value is “lost over half of the activity”. In [8] (pH 7.5), the Km came to 7 µM. For the same compound, the “binding to other N-acetylgalactosamine‒specific lectins” value in data set [9] was “bind specifically to human CLEC10A ([Hoober, 2020]) and other N-acetylgalactosamine‒specific lectins”.

carbobenzoxy-L-glytaminylglycine: the Km in [1] was 22000 µM.
